A short description of data set [1]: Drug uptake in Balb/c mouse KLH model at 3 mg/kg, po after 24 hrs. The format is ADME, organism-based. To be noted: in vivo, read-out: Drug uptake.
Data set [2] can be described thus: Drug uptake in Balb/c mouse KLH model at 15 mg/kg, po after 7 hrs. The format is ADME, organism-based. The following applies: in vivo, read-out: Drug uptake.
Data set [3] in a line: Drug uptake in Balb/c mouse KLH model at 3 mg/kg, po after 7 hrs. The format is ADME, organism-based. The following applies: in vivo, read-out: Drug uptake.
Data set [4] in a line: Drug uptake in KLH Balb/c mouse model at 0.6 mg/kg, po after 7 hrs. The format is ADME, organism-based. To be noted: in vivo, read-out: Drug uptake.
Data set [5] can be described thus: Drug uptake in Balb/c mouse KLH model at 0.6 mg/kg, po after 24 hrs. In kind it is ADME, organism-based. The following applies: in vivo, read-out: Drug uptake.
Data set [6] is described as follows: AUC in BALB/c mouse up to 300 mg/kg, qd measured on day 4. In kind it is ADME, organism-based. The following applies: in vivo.
Data set [7] can be described thus: Drug uptake in Balb/c mouse KLH model at 15 mg/kg, po after 24 hrs. The format is ADME, organism-based. The following applies: in vivo, read-out: Drug uptake.
Data set [8] is described as follows: Stability in mouse liver microsomes assessed as parent compound remaining at 0.5 uM after 10 mins by high throughput assay. In kind it is ADME, microsome. To be noted: read-out: Stability. A general note: Liver microsomes are vesicles of endoplasmic reticulum, rich in cytochrome P450 enzymes.
Data set [9] can be described thus: Cmax in BALB/c mouse up to 300 mg/kg, qd measured on day 4. The format is ADME, organism-based. Details: dose 300 mg/kg. To be noted: in vivo.

Consider four compounds from ChEMBL document CHEMBL3994626 (Bioorg Med Chem Lett, 2017).

What is called AUC is concentration integrated over time. A word on the Cmax: it is the highest concentration seen after dosing. Regarding `CC(=O)N1C[C@@H](C)N(c2cccc(-c3cc(-c4ccnn4C4CCOCC4)c4c(N)ncnn34)c2)[C@@H](C)C1`, the concentration at 24 h in data set [1] is below 3.9 nM; in data set [5], below 5.6 nM; in [7], below 7 nM. Further, the concentration at 7 h in [2] was 97.8 nM; in data set [3], 24.9 nM; in data set [4], below 6.4 nM. This compound also gave an AUC in data set [6] of at most 520 µM·h. Also, in data set [8], the remaining at 10 min, 0.5 µM is 54%. For the same compound, the Cmax in data set [9] is at most 55000 nM.

Take `COc1cc(-c2cc(-c3ccnn3C3CCOCC3)c3c(N)ncnn23)cc(N2[C@H](C)CN(C(C)=O)C[C@@H]2C)c1`: in data set [8], the remaining at 10 min, 0.5 µM is 14%.

For `CC(=O)N1C[C@@H](C)N(c2cncc(-c3cc(-c4ccnn4C4CCOCC4)c4c(N)ncnn34)c2)[C@@H](C)C1`, in [8], the remaining at 10 min, 0.5 µM is 48%.

Regarding `CC(=O)N1C[C@@H](C)N(c2cc(F)cc(-c3cc(-c4ccnn4C4CCOCC4)c4c(N)ncnn34)c2)[C@@H](C)C1`, the remaining at 10 min, 0.5 µM in data set [8] turned out to be 35%.
